# Data reported in US20250115620A1, “BRIDGED TRICYCLIC CARBAMOYLPYRIDONE COMPOUNDS AND USES THEREOF” (Gilead Sciences, Inc., priority 2022, published 2025).
# Like-named read-outs stand apart in the source and are kept apart here.
# Assays:
# HIV-1 (IIIB) = assay: microbe, parasite or virus in culture; format: cell-based; conditions: Human immunodeficiency virus 1, IIIB, MT4, 120 h, HIV-1 (IIIB) in MT-4 cells, 5 days incubation, Cell Titer Glo; read-out: MT4 EC50
# pLAI reporter virus = assay: microbe, parasite or virus in culture; format: cell-based, HIV; conditions: Human immunodeficiency virus 1, MT4, 72 h
# in vitro = conditions: human, uninfected MT-4 cells
# Procedure: Compounds were serially diluted (1:3) in DMSO on 384-well polypropylene plates and further diluted 200-fold into complete RPMI media (10% FBS, 1% P/S) using the Biotek Micro Flow and Labcyte ECHO acoustic dispenser. […] Infected and uninfected MT-4 cells were further diluted in complete RPMI media and added to each plate using a Micro Flow dispenser. After 5 days incubation in a humidified and temperature controlled incubator (37° C.), Cell Titer Glo (Promega) was added to the assay plates and chemiluminescence read using an Envision plate-reader.
# Assays were performed as above except uninfected MT-4 cells were added to each well containing test compound. In addition, 10 μM puromycin was added to the last column of each assay plate to assess a base level of cytotoxicity.
smiles,measurement,setting,value
"CCC1=NO[C@@]2(CC[C@H](C)N3C[C@H]2n2cc(C(=O)NCc4ccc(F)cc4F)c(=O)c(O)c2C3=O)O1 [Example 94, (3′S,5R,7′R)—N-(2,4-difluorobenzyl)-3-ethyl-12′-hydroxy-3′-methyl-1′,11′-dioxo-1′,4′,5′,11′-tetrahydro-3′H,7′H-spiro[[1,4,2]dioxazole-5,6′-[2,7]methanopyrido[1,2-a][1,4]diazonine]-10′-carboxamide]",EC50,HIV-1 (IIIB),1 nM
same,EC50,pLAI reporter virus; read-out: RLUC 50% HS EC50,684 nM
same,EC50,pLAI reporter virus; read-out: RLUC CCM EC50,0.2 nM
same,CC50 at 5 days,in vitro,30200 nM
"COC1=NO[C@@]2(CCCN3C[C@H]2n2cc(C(=O)NCc4c(F)cc(F)cc4F)c(=O)c(O)c2C3=O)C1 [Example 96, (5S,7′R)-12′-hydroxy-3-methoxy-1′,11′-dioxo-N-(2,4,6-trifluorobenzyl)-1′,4′,5′,11′-tetrahydro-3′H,4H,7′H-spiro[isoxazole-5,6′-[2,7]methanopyrido[1,2-a][1,4]diazonine]-10′-carboxamide]",EC50,HIV-1 (IIIB),1.1 nM
same,EC50,pLAI reporter virus; read-out: RLUC 50% HS EC50,1.2 nM
same,EC50,pLAI reporter virus; read-out: RLUC CCM EC50,0.2 nM
same,CC50 at 5 days,in vitro,31400 nM
"COC1=NO[C@@]2(CC[C@@H](C)N3C[C@H]2n2cc(C(=O)NCc4c(F)cc(F)cc4F)c(=O)c(O)c2C3=O)C1 [Example 97, (3′R,5S,7′R)-12′-hydroxy-3-methoxy-3′-methyl-1′,11′-dioxo-N-(2,4,6-trifluorobenzyl)-1′,4′,5′,11′-tetrahydro-3′H,4H,7′H-spiro[isoxazole-5,6′-[2,7]methanopyrido[1,2-a][1,4]diazonine]-10′-carboxamide]",EC50,HIV-1 (IIIB),2.5 nM
same,EC50,pLAI reporter virus; read-out: RLUC 50% HS EC50,1.8 nM
same,EC50,pLAI reporter virus; read-out: RLUC CCM EC50,0.5 nM
same,CC50 at 5 days,in vitro,10400 nM
"CC1=NO[C@@]2(CC[C@@H](C)N3C[C@H]2n2cc(C(=O)NCc4c(F)cc(F)cc4F)c(=O)c(O)c2C3=O)C1 [Example 98, (3′R,5S,7′R)-12′-hydroxy-3,3′-dimethyl-1′,11′-dioxo-N-(2,4,6-trifluorobenzyl)-1′,4′,5′,11′-tetrahydro-3′H,4H,7′H-spiro[isoxazole-5,6′-[2,7]methanopyrido[1,2-a][1,4]diazonine]-10′-carboxamide]",EC50,HIV-1 (IIIB),3 nM
same,EC50,pLAI reporter virus; read-out: RLUC 50% HS EC50,7.4 nM
same,EC50,pLAI reporter virus; read-out: RLUC CCM EC50,0.5 nM
same,CC50 at 5 days,in vitro,12700 nM
"COC1=NO[C@@]2(CC[C@H](CF)N3C[C@H]2n2cc(C(=O)NCc4c(F)cc(F)cc4F)c(=O)c(O)c2C3=O)C1 [Example 99, (3′R,5S,7′R)-3′-(fluoromethyl)-12′-hydroxy-3-methoxy-1′,11′-dioxo-N-(2,4,6-trifluorobenzyl)-1′,4′,5′,11′-tetrahydro-3′H,4H,7′H-spiro[isoxazole-5,6′-[2,7]methanopyrido[1,2-a][1,4]diazonine]-10′-carboxamide]",EC50,HIV-1 (IIIB),1.5 nM
same,EC50,pLAI reporter virus; read-out: RLUC 50% HS EC50,19.7 nM
same,EC50,pLAI reporter virus; read-out: RLUC CCM EC50,0.2 nM
same,CC50 at 5 days,in vitro,36500 nM
"COC1=NO[C@@]2(CC[C@H](CF)N3C[C@H]2n2cc(C(=O)NCc4ccc(F)cc4F)c(=O)c(O)c2C3=O)C1 [Example 100, (3′R,5S,7′R)—N-(2,4-difluorobenzyl)-3′-(fluoromethyl)-12′-hydroxy-3-methoxy-1′,11′-dioxo-1′,4′,5′,11′-tetrahydro-3′H,4H,7′H-spiro[isoxazole-5,6′-[2,7]methanopyrido[1,2-a][1,4]diazonine]-10′-carboxamide]",EC50,HIV-1 (IIIB),1.5 nM
same,EC50,pLAI reporter virus; read-out: RLUC 50% HS EC50,13.5 nM
same,EC50,pLAI reporter virus; read-out: RLUC CCM EC50,0.3 nM
same,CC50 at 5 days,in vitro,≥ 50000 nM
"C[C@H]1CC[C@]2(CC(=O)NO2)[C@H]2CN1C(=O)c1c(O)c(=O)c(C(=O)NCc3c(F)cc(F)cc3F)cn12 [Example 101, (3′S,5S,7′R)-12′-hydroxy-3′-methyl-1′,3,11′-trioxo-N-(2,4,6-trifluorobenzyl)-1′,4′,5′,11′-tetrahydro-3′H,7′H-spiro[isoxazolidine-5,6′-[2,7]methanopyrido[1,2-a][1,4]diazonine]-10′-carboxamide]",EC50,HIV-1 (IIIB),98.1 nM
same,EC50,pLAI reporter virus; read-out: RLUC 50% HS EC50,408 nM
same,EC50,pLAI reporter virus; read-out: RLUC CCM EC50,34 nM
same,CC50 at 5 days,in vitro,≥ 50000 nM
"C[C@H]1CC[C@@]2(CC(=O)N(Cc3ccc(F)cc3)O2)[C@H]2CN1C(=O)c1c(O)c(=O)c(C(=O)NCc3c(F)cc(F)cc3F)cn12 [Example 102, (3′S,5R,7′R)-2-(4-fluorobenzyl)-12′-hydroxy-3′-methyl-1′,3,11′-trioxo-N-(2,4,6-trifluorobenzyl)-1′,4′,5′,11′-tetrahydro-3′H,7′H-spiro[isoxazolidine-5,6′-[2,7]methanopyrido[1,2-a][1,4]diazonine]-10′-carboxamide]",EC50,HIV-1 (IIIB),11.5 nM
same,EC50,pLAI reporter virus; read-out: RLUC 50% HS EC50,30 nM
same,EC50,pLAI reporter virus; read-out: RLUC CCM EC50,2 nM
same,CC50 at 5 days,in vitro,8790 nM
"C[C@H]1CC[C@]2(CC(=O)N(Cc3ccc4c(cnn4C)c3)O2)[C@H]2CN1C(=O)c1c(O)c(=O)c(C(=O)NCc3c(F)cc(F)cc3F)cn12 [Example 103, (3′S,5S,7′R)-12′-hydroxy-3′-methyl-2-((1-methyl-1H-indazol-5-yl)methyl)-1′,3,11′-trioxo-N-(2,4,6-trifluorobenzyl)-1′,4′,5′,11′-tetrahydro-3′H,7′H-spiro[isoxazolidine-5,6′-[2,7]methanopyrido[1,2-a][1,4]diazonine]-10′-carboxamide]",EC50,HIV-1 (IIIB),1.5 nM
same,EC50,pLAI reporter virus; read-out: RLUC 50% HS EC50,0.4 nM
same,EC50,pLAI reporter virus; read-out: RLUC CCM EC50,0.2 nM
same,CC50 at 5 days,in vitro,≥ 50000 nM
"C[C@H]1CC[C@]2(CC(=O)N(Cc3cnn(C)n3)O2)[C@H]2CN1C(=O)c1c(O)c(=O)c(C(=O)NCc3c(F)cc(F)cc3F)cn12 [Example 104, (3′S,5S,7′R)-12′-hydroxy-3′-methyl-2-((2-methyl-2H-1,2,3-triazol-4-yl)methyl)-1′,3,11′-trioxo-N-(2,4,6-trifluorobenzyl)-1′,4′,5′,11′-tetrahydro-3′H,7′H-spiro[isoxazolidine-5,6′-[2,7]methanopyrido[1,2-a][1,4]diazonine]-10′-carboxamide]",EC50,HIV-1 (IIIB),2.6 nM
same,EC50,pLAI reporter virus; read-out: RLUC 50% HS EC50,0.3 nM
same,EC50,pLAI reporter virus; read-out: RLUC CCM EC50,0.9 nM
same,CC50 at 5 days,in vitro,≥ 50000 nM
"C[C@H]1CC[C@]2(CC(=O)N(CCc3ccccc3)O2)[C@H]2CN1C(=O)c1c(O)c(=O)c(C(=O)NCc3c(F)cc(F)cc3F)cn12 [Example 105, (3′S,5S,7′R)-12′-hydroxy-3′-methyl-1′,3,11′-trioxo-2-phenethyl-N-(2,4,6-trifluorobenzyl)-1′,4′,5′,11′-tetrahydro-3′H,7′H-spiro[isoxazolidine-5,6′-[2,7]methanopyrido[1,2-a][1,4]diazonine]-10′-carboxamide]",EC50,HIV-1 (IIIB),1.2 nM
same,EC50,pLAI reporter virus; read-out: RLUC 50% HS EC50,15.5 nM
same,EC50,pLAI reporter virus; read-out: RLUC CCM EC50,0.3 nM
same,CC50 at 5 days,in vitro,≥ 50000 nM
"C[C@H]1CC[C@]2(CC(=O)N(Cc3cccc4ccccc34)O2)[C@H]2CN1C(=O)c1c(O)c(=O)c(C(=O)NCc3c(F)cc(F)cc3F)cn12 [Example 106, (3′S,5S,7′R)-12′-hydroxy-3′-methyl-2-(naphthalen-1-ylmethyl)-1′,3,11′-trioxo-N-(2,4,6-trifluorobenzyl)-1′,4′,5′,11′-tetrahydro-3′H,7′H-spiro[isoxazolidine-5,6′-[2,7]methanopyrido[1,2-a][1,4]diazonine]-10′-carboxamide]",EC50,HIV-1 (IIIB),0.9 nM
same,EC50,pLAI reporter virus; read-out: RLUC 50% HS EC50,64.2 nM
same,EC50,pLAI reporter virus; read-out: RLUC CCM EC50,0.2 nM
same,CC50 at 5 days,in vitro,≥ 50000 nM
"C[C@H]1CC[C@]2(CC(=O)N(Cc3ccc4ccccc4c3)O2)[C@H]2CN1C(=O)c1c(O)c(=O)c(C(=O)NCc3c(F)cc(F)cc3F)cn12 [Example 107, (3′S,5S,7′R)-12′-hydroxy-3′-methyl-2-(naphthalen-2-ylmethyl)-1′,3,11′-trioxo-N-(2,4,6-trifluorobenzyl)-1′,4′,5′,11′-tetrahydro-3′H,7′H-spiro[isoxazolidine-5,6′-[2,7]methanopyrido[1,2-a][1,4]diazonine]-10′-carboxamide]",EC50,HIV-1 (IIIB),0.8 nM
same,EC50,pLAI reporter virus; read-out: RLUC 50% HS EC50,10.2 nM
same,EC50,pLAI reporter virus; read-out: RLUC CCM EC50,0.3 nM
same,CC50 at 5 days,in vitro,≥ 50000 nM
